Assay results published in patent publication US20240325353A1, “COMPOUND FOR TREATMENT OF COGNITIVE DISORDERS” (Syndesi Therapeutics SA, priority 2021, published 2024).

Assays:
[1] = repeat dose pharmacokinetics in humans; assay type: in vivo, human; conditions: once daily repeat dosing, all doses
[2] = tested on: functional connectivity of brain networks (DMN, visual network); test: resting state BOLD-fMRI functional connectivity; assay type: in vivo, human; conditions: post dose versus baseline
Protocol: This example describes the fMRI analysis performed in the context of the study in Example 3. Simultaneous with the dynamic PET described in example 3 above, MRI data were acquired using a resting state BOLD-fMRI (rs-fMRI) protocol. In the following section, the methodology and results of the analysis of these MRI data are presented.
Resting state BOLD-fMRI data were acquired according to the following protocol: For the analysis of the rs-fMRI scans, all data were converted to the BIDS format for processing with the CONN toolbox (release 19c).
The following preprocessing steps were performed: • Slice timing correction: Temporal misalignment between different slices of the rs-fMRI scans, due to the sequential nature of the fMRI acquisition, is corrected by applying an appropriate timeshift to match the actual acquisition time • Realignment: RS-fMRI data were realigned where all scans were coregistered to the first scan of the first session. This way, potential susceptibility distortion-by-motion interactions were also addressed by estimating the derivatives of the deformation field with respect to head movement, and resampling the functional data to match the deformation field of the reference image. • Outlier detection: Potential outlier scans were identified from the observed global BOLD signal and the amount of subject-motion in the scanner. […]

## O=C1C[C@H](c2cc(F)c(F)c(F)c2)CN1Cn1ncnc1Cl [compound of example 1, (4R)-1-[(5-chloro-1H-1,2,4-triazol-1-yl)methyl]-4-(3,4,5-trifluorophenyl)pyrrolidin-2-one]
[1]
  time to reach steady state: 8 to 10 days
[2]; low doses (all four individuals at 1 and 2 mg)
  connectivity in the DMN (seed IC12): modulate and enhance connectivity in the DMN
[2]; relatively low occupancy levels
  connectivity between IC18 (Visual network) and auditory network: increased
